Data reported in paper PMC5218480 (PLoS ONE, 2017).

Tested on: MV-4-11 cells
Experiment: Gene expression microarray analysis (Affymetrix PrimeView) and GSEA
Type: cell-based, human
Set-up: RFU PODN (11730768_x_at) / Fold change /veh PODN (11730768_x_at) / RFU LINC00158 (11744669_a_at) / Fold change /veh LINC00158 (11744669_a_at) / RFU DUSP10 (11751237_a_at) / Fold change /veh DUSP10 (11751237_a_at) / RFU ID3 (11757404_x_at) / Fold change /veh ID3 (11757404_x_at) / RFU PLEKHG5 (11737974_s_at) / Fold change /veh PLEKHG5 (11737974_s_at) / RFU LRRC4B (11730491_at) / Fold change /veh LRRC4B (11730491_at) / RFU GIMAP4 (11747438_a_at) / Fold change /veh GIMAP4 (11747438_a_at) / RFU KRT8 (11758183_x_at) / Fold change /veh KRT8 (11758183_x_at) / RFU CNN1 (11734310_a_at) / Fold change /veh CNN1 (11734310_a_at) / RFU VPS37D (11726825_at) / Fold change /veh VPS37D (11726825_at) / RFU C10orf10 (11716522_x_at) / Fold change /veh C10orf10 (11716522_x_at) / RFU KIR2DL2 /// KIR2DL4 /// KIR2DL5A /// KIR2DL5B /// KIR2DS1 /// KIR2DS2 /// KIR2DS3 /// KIR2DS4 /// KIR3DL3 /// KIR3DL3 /// KIR3DS1 (11738374_at) / Fold change /veh KIR2DL2 /// KIR2DL4 /// KIR2DL5A /// KIR2DL5B /// KIR2DS1 /// KIR2DS2 /// KIR2DS3 /// KIR2DS4 /// KIR3DL3 /// KIR3DL3 /// KIR3DS1 (11738374_at) / RFU C1QL1 (11718748_at) / Fold change /veh C1QL1 (11718748_at) / RFU TMPRSS4 (11747572_a_at) / Fold change /veh TMPRSS4 (11747572_a_at) / RFU HAMP (11756126_x_at) / Fold change /veh HAMP (11756126_x_at) / RFU RNFT2 (11725882_a_at) / Fold change /veh RNFT2 (11725882_a_at) / RFU NR4A2 (11747474_a_at) / Fold change /veh NR4A2 (11747474_a_at) / RFU ABCC12 (11746883_a_at) / Fold change /veh ABCC12 (11746883_a_at) / RFU TMEM136 (11760407_x_at) / Fold change /veh TMEM136 (11760407_x_at) / RFU CLDN22 /// WWC2 (11732394_at) / Fold change /veh CLDN22 /// WWC2 (11732394_at) / RFU HLA-DPB1 (11760878_x_at) / Fold change /veh HLA-DPB1 (11760878_x_at) / RFU SPINT1 (11716480_a_at) / Fold change /veh SPINT1 (11716480_a_at) / RFU GAP43 (11754022_s_at) / Fold change /veh GAP43 (11754022_s_at) / RFU A4GNT (11735810_at) / Fold change /veh A4GNT (11735810_at) / RFU PRB3 (11715151_x_at) / Fold change /veh PRB3 (11715151_x_at) / RFU TUBB4B (11761932_at) / Fold change /veh TUBB4B (11761932_at) / RFU CAPN14 (11732068_a_at) / Fold change /veh CAPN14 (11732068_a_at) / RFU TMCC2 (11721928_a_at) / Fold change /veh TMCC2 (11721928_a_at) / RFU IRGQ (11745062_a_at) / Fold change /veh IRGQ (11745062_a_at) / RFU FAM174B (11720279_a_at) / Fold change /veh FAM174B (11720279_a_at) / RFU TMPRSS4 (11748680_a_at) / Fold change /veh TMPRSS4 (11748680_a_at) / RFU FAM212B (11763350_a_at) / Fold change /veh FAM212B (11763350_a_at) / RFU PLEKHG5 (11743358_a_at) / Fold change /veh PLEKHG5 (11743358_a_at) / RFU ZSCAN30 (11745921_a_at) / Fold change /veh ZSCAN30 (11745921_a_at) / RFU CMKLR1 (11741424_a_at) / Fold change /veh CMKLR1 (11741424_a_at) / RFU LOC101060620 /// MAPK8IP1 (11723275_at) / Fold change /veh LOC101060620 /// MAPK8IP1 (11723275_at) / RFU SPTSSB (11747773_x_at) / Fold change /veh SPTSSB (11747773_x_at) / RFU PRSS12 (11739890_at) / Fold change /veh PRSS12 (11739890_at) / RFU BIN1 (11741810_x_at) / Fold change /veh BIN1 (11741810_x_at) / RFU WNT11 (11732464_a_at) / Fold change /veh WNT11 (11732464_a_at) / RFU C10orf10 (11716521_a_at) / Fold change /veh C10orf10 (11716521_a_at) / RFU C5orf56 (11738089_at) / Fold change /veh C5orf56 (11738089_at) / RFU CYB561 (11721691_x_at) / Fold change /veh CYB561 (11721691_x_at) / RFU ANKRD19P (11752326_a_at) / Fold change /veh ANKRD19P (11752326_a_at) / RFU OR2T12 /// OR2T33 /// OR2T8 (11738714_s_at) / Fold change /veh OR2T12 /// OR2T33 /// OR2T8 (11738714_s_at) / RFU VCAN (11748164_a_at) / Fold change /veh VCAN (11748164_a_at) / RFU JSRP1 (11732532_at) / Fold change /veh JSRP1 (11732532_at) / RFU KRTAP10-11 (11738290_x_at) / Fold change /veh KRTAP10-11 (11738290_x_at) / RFU MYO3A (11730013_a_at) / Fold change /veh MYO3A (11730013_a_at) / RFU EBF3 (11725865_a_at) / Fold change /veh EBF3 (11725865_a_at) / RFU CAMK2N1 (11719241_x_at) / Fold change /veh CAMK2N1 (11719241_x_at) / RFU C5orf56 (11738088_a_at) / Fold change /veh C5orf56 (11738088_a_at) / RFU OLFML3 (11715873_a_at) / Fold change /veh OLFML3 (11715873_a_at) / RFU LOC100653217 /// NTM (11731650_a_at) / Fold change /veh LOC100653217 /// NTM (11731650_a_at) / RFU MAPK11 (11762145_a_at) / Fold change /veh MAPK11 (11762145_a_at) / RFU FIZ1 (11724087_x_at) / Fold change /veh FIZ1 (11724087_x_at) / RFU OASL (11726364_x_at) / Fold change /veh OASL (11726364_x_at) / RFU SOX15 (11748057_x_at) / Fold change /veh SOX15 (11748057_x_at) / RFU CD79A (11719716_a_at) / Fold change /veh CD79A (11719716_a_at) / RFU HIST1H1D (11736915_at) / Fold change /veh HIST1H1D (11736915_at) / RFU CASKIN2 (11723855_a_at) / Fold change /veh CASKIN2 (11723855_a_at) / RFU LOC730098 (11760151_x_at) / Fold change /veh LOC730098 (11760151_x_at) / RFU OR4N2 (11742367_at) / Fold change /veh OR4N2 (11742367_at) / RFU PRRT2 (11749266_a_at) / Fold change /veh PRRT2 (11749266_a_at) / RFU SNX32 (11753110_a_at) / Fold change /veh SNX32 (11753110_a_at) / RFU CDHR5 (11726645_a_at) / Fold change /veh CDHR5 (11726645_a_at) / RFU RCAN1 (11760418_a_at) / Fold change /veh RCAN1 (11760418_a_at) / RFU FAM167A (11723789_a_at) / Fold change /veh FAM167A (11723789_a_at) / RFU FAM26E (11764081_at) / Fold change /veh FAM26E (11764081_at) / RFU ISYNA1 (11749810_s_at) / Fold change /veh ISYNA1 (11749810_s_at) / RFU ACY1 (11761880_at) / Fold change /veh ACY1 (11761880_at) / RFU 11764098_at / Fold change /veh 11764098_at / RFU SAMD14 (11745864_x_at) / Fold change /veh SAMD14 (11745864_x_at) / RFU NPB (11741838_a_at) / Fold change /veh NPB (11741838_a_at) / RFU TMPRSS6 (11731388_a_at) / Fold change /veh TMPRSS6 (11731388_a_at) / RFU KRTAP10-2 (11738614_at) / Fold change /veh KRTAP10-2 (11738614_at) / RFU ARHGAP8 /// PRR5-ARHGAP8 (11727945_x_at) / Fold change /veh ARHGAP8 /// PRR5-ARHGAP8 (11727945_x_at) / RFU KRTAP5-7 /// NADSYN1 (11734609_at) / Fold change /veh KRTAP5-7 /// NADSYN1 (11734609_at) / RFU RASL12 (11751679_a_at) / Fold change /veh RASL12 (11751679_a_at) / RFU CDKN2B (11736163_a_at) / Fold change /veh CDKN2B (11736163_a_at) / RFU PRF1 (11729649_at) / Fold change /veh PRF1 (11729649_at) / RFU, ZNF638 /// ZNF638-IT1 / Fold change vs veh, ZNF638 /// ZNF638-IT1 / RFU, PANK3 / Fold change vs veh, PANK3 / RFU, SH3YL1 / Fold change vs veh, SH3YL1 / RFU, ZEB2 / Fold change vs veh, ZEB2 / RFU, NRIP1 / Fold change vs veh, NRIP1 / RFU, PTTG1IP / Fold change vs veh, PTTG1IP / RFU, CAPN2 / Fold change vs veh, CAPN2 / RFU, MED14 / Fold change vs veh, MED14 / RFU, SNORA58 / Fold change vs veh, SNORA58 / RFU, C1orf63 / Fold change vs veh, C1orf63 / RFU, LRRFIP1 / Fold change vs veh, LRRFIP1 / RFU, NDUFAF7 / Fold change vs veh, NDUFAF7 / RFU, SLC12A2 / Fold change vs veh, SLC12A2 / RFU, IBTK / Fold change vs veh, IBTK / RFU, ESF1 / Fold change vs veh, ESF1 / Fold change vs veh, TMEM50B / RFU, TAOK1 / Fold change vs veh, TAOK1 / RFU, ACBD3 / Fold change vs veh, ACBD3 / RFU, TMA16 / Fold change vs veh, TMA16 / RFU, RWDD3 / Fold change vs veh, RWDD3 / RFU, BCAT1 / Fold change vs veh, BCAT1 / RFU, EDEM3 / Fold change vs veh, EDEM3 / RFU, TMEM33 / Fold change vs veh, TMEM33 / RFU, WDR75 / Fold change vs veh, WDR75 / RFU, AHCTF1 / Fold change vs veh, AHCTF1 / RFU, TFRC / Fold change vs veh, TFRC / RFU, ZDHHC17 / Fold change vs veh, ZDHHC17 / RFU, NOM1 / Fold change vs veh, NOM1 / RFU, ARL8B / Fold change vs veh, ARL8B / RFU, ZBTB11 / Fold change vs veh, ZBTB11 / RFU, TAMM41 / Fold change vs veh, TAMM41 / RFU, KIAA1704 /// LOC100996395 / Fold change vs veh, KIAA1704 /// LOC100996395 / RFU, ING1 / Fold change vs veh, ING1 / RFU, TRMT61B / Fold change vs veh, TRMT61B / RFU, FUBP3 / Fold change vs veh, FUBP3 / RFU, TP53 / Fold change vs veh, TP53 / RFU, TNKS2 / Fold change vs veh, TNKS2 / RFU, ZFP14 / Fold change vs veh, ZFP14 / RFU, ACTR2 / Fold change vs veh, ACTR2 / RFU, PPP3R1 / Fold change vs veh, PPP3R1 / RFU, PIK3R1 / Fold change vs veh, PIK3R1 / RFU, HNRNPA1 / Fold change vs veh, HNRNPA1 / RFU, RNF170 / Fold change vs veh, RNF170 / RFU, ZNF28 / Fold change vs veh, ZNF28 / RFU, RNGTT / Fold change vs veh, RNGTT / RFU, OGT / Fold change vs veh, OGT / RFU, BRD1 / Fold change vs veh, BRD1 / RFU, MARS / Fold change vs veh, MARS / RFU, ZNF655 / Fold change vs veh, ZNF655 / RFU, FAHD1 / Fold change vs veh, FAHD1 / RFU, BDP1 / Fold change vs veh, BDP1 / RFU, LRRCC1 / Fold change vs veh, LRRCC1 / RFU, ARID1A / Fold change vs veh, ARID1A / RFU, ZNF146 / Fold change vs veh, ZNF146 / RFU, ZNF330 / Fold change vs veh, ZNF330 / RFU, GPN3 / Fold change vs veh, GPN3 / RFU, C9orf123 / Fold change vs veh, C9orf123 / RFU, N4BP2L2 / Fold change vs veh, N4BP2L2 / RFU, ARFIP1 / Fold change vs veh, ARFIP1 / RFU, FAM179B / Fold change vs veh, FAM179B / RFU, BCL10 / Fold change vs veh, BCL10 / RFU, UHRF1BP1L / Fold change vs veh, UHRF1BP1L / RFU, BET1 / Fold change vs veh, BET1 / RFU, CNOT2 / Fold change vs veh, CNOT2 / RFU, ZNF268 / Fold change vs veh, ZNF268 / Fold change vs veh, ZNF507 / RFU, DGCR2 / Fold change vs veh, DGCR2 / RFU, WDSUB1 / Fold change vs veh, WDSUB1 / Fold change vs veh, HSP90B1 /// MIR3652 / RFU, ADSS / Fold change vs veh, ADSS / RFU, GK / Fold change vs veh, GK / RFU, ZNF148 / Fold change vs veh, ZNF148 / RFU, TAF9 / Fold change vs veh, TAF9 / RFU, SLC1A5 / Fold change vs veh, SLC1A5 / RFU, SLMO2 / Fold change vs veh, SLMO2 / RFU, ABCC4 / Fold change vs veh, ABCC4 / RFU, LOC101060439 /// RAP1B / Fold change vs veh, LOC101060439 /// RAP1B / RFU, RFX7 / Fold change vs veh, RFX7 / RFU, GTPBP10 / Fold change vs veh, GTPBP10 / RFU, CNEP1R1 / Fold change vs veh, CNEP1R1 / RFU, BIVM-ERCC5 /// ERCC5 / Fold change vs veh, BIVM-ERCC5 /// ERCC5 / RFU, ILF3 / Fold change vs veh, ILF3 / RFU 11762660_at / Fold change /veh 11762660_at / RFU VCAN (11757783_s_at) / Fold change /veh VCAN (11757783_s_at) / RFU DDX43 (11728927_at) / Fold change /veh DDX43 (11728927_at) / RFU KRT8 (11758188_x_at) / Fold change /veh KRT8 (11758188_x_at) / RFU NKD1 (11759106_at) / Fold change /veh NKD1 (11759106_at) / RFU SRD5A1 (11742802_a_at) / Fold change /veh SRD5A1 (11742802_a_at) / RFU TPSAB1 /// TPSB2 (11721975_s_at) / Fold change /veh TPSAB1 /// TPSB2 (11721975_s_at) / RFU GSTM3 (11746129_a_at) / Fold change /veh GSTM3 (11746129_a_at) / RFU IL23R (11737362_x_at) / Fold change /veh IL23R (11737362_x_at) / RFU TMEM51 (11727254_a_at) / Fold change /veh TMEM51 (11727254_a_at) / RFU PIWIL2 (11732686_x_at) / Fold change /veh PIWIL2 (11732686_x_at) / RFU ORM1 (11744905_x_at) / Fold change /veh ORM1 (11744905_x_at) / RFU CCDC152 (11743942_at) / Fold change /veh CCDC152 (11743942_at) / RFU ECM1 (11717891_a_at) / Fold change /veh ECM1 (11717891_a_at) / RFU IL23R (11748794_a_at) / Fold change /veh IL23R (11748794_a_at) / RFU TNFAIP8L3 (11732012_x_at) / Fold change /veh TNFAIP8L3 (11732012_x_at) / RFU MBOAT4 (11741988_at) / Fold change /veh MBOAT4 (11741988_at) / RFU 11764193_at / Fold change /veh 11764193_at / RFU TMEM53 (11763286_at) / Fold change /veh TMEM53 (11763286_at) / RFU MAGEB2 (11727129_at) / Fold change /veh MAGEB2 (11727129_at) / RFU TMEM200A (11744735_a_at) / Fold change /veh TMEM200A (11744735_a_at) / RFU CCDC152 (11751479_a_at) / Fold change /veh CCDC152 (11751479_a_at) / RFU FAM211A (11726209_a_at) / Fold change /veh FAM211A (11726209_a_at) / RFU RGS16 (11746705_a_at) / Fold change /veh RGS16 (11746705_a_at) / RFU VCAN (11755009_s_at) / Fold change /veh VCAN (11755009_s_at) / RFU RHOB (11743442_s_at) / Fold change /veh RHOB (11743442_s_at) / RFU RGS16 (11720943_a_at) / Fold change /veh RGS16 (11720943_a_at) / RFU RGS16 (11720944_at) / Fold change /veh RGS16 (11720944_at) / RFU, VPS4B / Fold change vs veh, VPS4B / RFU, CREB1 / Fold change vs veh, CREB1 / RFU, DNAJC13 / Fold change vs veh, DNAJC13 / RFU, GNAQ / Fold change vs veh, GNAQ / RFU, CDK5R1 / Fold change vs veh, CDK5R1 / RFU, ZRANB3 / Fold change vs veh, ZRANB3 / RFU, CUL4A / Fold change vs veh, CUL4A / RFU, CCNY / Fold change vs veh, CCNY / RFU, UFL1 / Fold change vs veh, UFL1 / RFU, COG3 / Fold change vs veh, COG3 / RFU, DIAPH2 / Fold change vs veh, DIAPH2 / RFU, SKA2 / Fold change vs veh, SKA2 / RFU, AFF3 / Fold change vs veh, AFF3 / RFU, LMF1 / Fold change vs veh, LMF1 / RFU, IPO11 / Fold change vs veh, IPO11 / RFU, DFFB / Fold change vs veh, DFFB / RFU, FOXP1 / Fold change vs veh, FOXP1 / RFU, CARD8 / Fold change vs veh, CARD8 / RFU, STRN3 / Fold change vs veh, STRN3 / RFU, ADK / Fold change vs veh, ADK / RFU, RASSF2 / Fold change vs veh, RASSF2 / RFU, WIPF1 / Fold change vs veh, WIPF1 / RFU, LARP1B / Fold change vs veh, LARP1B / RFU, RASA1 / Fold change vs veh, RASA1 / RFU, RB1 / Fold change vs veh, RB1 / RFU, PPFIA1 / Fold change vs veh, PPFIA1 / RFU, MAT2A / Fold change vs veh, MAT2A / RFU, CCT5 / Fold change vs veh, CCT5 / RFU, WDR92 / Fold change vs veh, WDR92 / RFU, CUX1 / Fold change vs veh, CUX1 / RFU, TTC7A / Fold change vs veh, TTC7A / RFU, TMEM135 / Fold change vs veh, TMEM135 / RFU, DEPTOR / Fold change vs veh, DEPTOR / RFU, CPM / Fold change vs veh, CPM / RFU, DNAJB6 / Fold change vs veh, DNAJB6 / RFU, CACNA2D3 / Fold change vs veh, CACNA2D3 / RFU, DTX4 / Fold change vs veh, DTX4 / RFU, TFCP2 / Fold change vs veh, TFCP2 / RFU, GMCL1 /// GMCL1P1 / Fold change vs veh, GMCL1 /// GMCL1P1 / RFU, AEBP2 / Fold change vs veh, AEBP2 / RFU, SNHG1 /// SNORD22 /// SNORD25 /// SNORD26 /// SNORD27 /// SNORD28 /// SNORD29 /// SNORD31 / Fold change vs veh, SNHG1 /// SNORD22 /// SNORD25 /// SNORD26 /// SNORD27 /// SNORD28 /// SNORD29 /// SNORD31 / Fold change (Aza/veh), C12orf56 (ProbeSet 11735607_a_at) / Fold change (ACY-1035/veh), C12orf56 (ProbeSet 11735607_a_at) / Fold change (Aza/veh), FGFR1OP (ProbeSet 11751329_s_at) / Fold change (ACY-1035/veh), FGFR1OP (ProbeSet 11751329_s_at) / Fold change (Aza/veh), VPS36 (ProbeSet 11739960_a_at) / Fold change (ACY-1035/veh), VPS36 (ProbeSet 11739960_a_at) / RFU SYPL1 (11715823_x_at) / Fold change /veh SYPL1 (11715823_x_at) / RFU IGFBP7 (11715501_s_at) / Fold change /veh IGFBP7 (11715501_s_at) / RFU REEP3 (11722064_at) / Fold change /veh REEP3 (11722064_at) / RFU IGLL1 (11728026_x_at) / Fold change /veh IGLL1 (11728026_x_at): dose or concentration left out as unconfirmed
Conditions: ProbeSet 11731583_a_at; LIST D

Structure (SMILES): Nc1ccc(-c2cccs2)cc1NC(=O)c1ccc2c(c1)cc(C1CC1)n2CCN1CCOCC1 [ACY-1035]
- RFU, LARP1B: 84.89 RFU
